In ChEMBL document CHEMBL5584264 (Bioorg Med Chem Lett, 2024) one finds Activity, Ki and viability data, which are given here for one molecule.

The Ki is the equilibrium dissociation constant of an inhibitor or competing ligand from its target.

Assay [1] concerns RAW264.7. Briefly: Antiinflammatory activity against LPS-induced mouse RAW264.7 cells assessed as reduction in TNF-alpha level at 10 uM preincubated with compound for 1 hr followed by LPS-induction and measured after 24 hrs by ELISA analysis relative to control. The settings on record: time 25 hrs. Format: functional. On the set-up: scale not given: the % may be the effect or the level left. On the technique in general: ELISA stands for enzyme-linked immunosorbent assay.

For assay [2], the system named is RAW264.7. Briefly: Antiinflammatory activity against LPS-induced mouse RAW264.7 cells assessed as reduction in TNF-alpha level at 30 uM preincubated with compound for 1 hr followed by LPS-induction and measured after 24 hrs by ELISA analysis relative to control. The settings on record: time 25 hrs. Format: functional. The arrangement: scale not given: the % may be the effect or the level left.

The target in assay [3] is Serotonin 3 (5-HT3) receptor. Kind of assay: Displacement of [3H]DTG from 5HT3 receptor (unknown origin) assessed as inhibition constant. Format: protein-complex assay, Homo sapiens. A general note: Displacement assays read how much labelled ligand stays bound in the presence of the test substance.
The target in assay [4] is 5-hydroxytryptamine receptor 2B (Homo sapiens, UniProt P41595). Briefly: Displacement of [3H]DTG from 5HT2B receptor (unknown origin) assessed as inhibition constant.
Assay [5] concerns the target Protein cereblon/DNA damage-binding protein 1 (Homo sapiens) (UniProt Q96SW2+Q16531). Briefly: Displacement of Cy5-tagged thalidomide-like probe from human CRBN/DDB1 complex by fluorescence polarization based CRBN binding assay. Format: protein assay. For orientation: Polarisation of emitted light reports the rotation of a fluorescent probe.
The test system of assay [6] is RAW264.7. Kind of assay: Antiinflammatory activity against LPS-induced mouse RAW264.7 cells assessed as reduction in nitrite level at 30 uM preincubated with compound for 1 hr followed by LPS-induction and measured after 24 hrs by Fluorometric Assay relative to control. In kind it is functional. The settings on record: time 25 hrs. The arrangement: scale not given: the % may be the effect or the level left.

Assay [7] addresses 5-hydroxytryptamine receptor 2A (Homo sapiens, UniProt P28223). Kind of assay: Displacement of [3H]DTG from 5HT2A receptor (unknown origin) assessed as inhibition constant.
For assay [8], the system named is RAW264.7. Briefly: Antiinflammatory activity against LPS-induced mouse RAW264.7 cells assessed as reduction in IL-6 level at 10 uM preincubated with compound for 1 hr followed by LPS-induction and measured after 24 hrs by ELISA analysis relative to control. Format: functional. On the set-up: scale not given: the % may be the effect or the level left. The settings on record: time 25 hrs.

The test system of assay [9] is RAW264.7. Briefly: Antiinflammatory activity against LPS-induced mouse RAW264.7 cells assessed as reduction in TNF-alpha level at 1 uM preincubated with compound for 1 hr followed by LPS-induction and measured after 24 hrs by ELISA analysis relative to control. In kind it is functional. On the set-up: scale not given: the % may be the effect or the level left. The settings on record: time 25 hrs.

Assay [10] relates to RAW264.7. Kind of assay: Antiinflammatory activity against LPS-induced mouse RAW264.7 cells assessed as cell viability at 10 uM by celltiter-blue cell viability assay. Format: functional. The settings on record: read-out: Activity.
In assay [11] the test system is RAW264.7. Kind of assay: Antiinflammatory activity against LPS-induced mouse RAW264.7 cells assessed as reduction in IL-6 level at 30 uM preincubated with compound for 1 hr followed by LPS-induction and measured after 24 hrs by ELISA analysis relative to control. Format: functional. On the set-up: scale not given: the % may be the effect or the level left. The settings on record: time 25 hrs.

In assay [12] the test system is RAW264.7. Kind of assay: Antiinflammatory activity against LPS-induced mouse RAW264.7 cells assessed as cell viability at 1 uM by celltiter-blue cell viability assay. In kind it is functional. The settings on record: read-out: Activity.
For assay [13], the system named is RAW264.7. Briefly: Antiinflammatory activity against LPS-induced mouse RAW264.7 cells assessed as reduction in IL-6 level at 1 uM preincubated with compound for 1 hr followed by LPS-induction and measured after 24 hrs by ELISA analysis relative to control. Format: functional. The arrangement: scale not given: the % may be the effect or the level left. The settings on record: time 25 hrs.

The test system of assay [14] is RAW264.7. Kind of assay: Antiinflammatory activity against LPS-induced mouse RAW264.7 cells assessed as cell viability at 30 uM by celltiter-blue cell viability assay. The settings on record: read-out: Activity. In kind it is functional.
The test system of assay [15] is RAW264.7. Kind of assay: Antiinflammatory activity against LPS-induced mouse RAW264.7 cells assessed as reduction in nitrite level at 1 uM preincubated with compound for 1 hr followed by LPS-induction and measured after 24 hrs by Fluorometric Assay relative to control. Format: functional. On the set-up: scale not given: the % may be the effect or the level left. The settings on record: time 25 hrs.

Assay [16] has as its system RAW264.7. Kind of assay: Antiinflammatory activity against LPS-induced mouse RAW264.7 cells assessed as reduction in nitrite level at 10 uM preincubated with compound for 1 hr followed by LPS-induction and measured after 24 hrs by Fluorometric Assay relative to control. In kind it is functional. On the set-up: scale not given: the % may be the effect or the level left. The settings on record: time 25 hrs.

5-hydroxytryptamine receptor 2B, sequence (P41595 whole entry): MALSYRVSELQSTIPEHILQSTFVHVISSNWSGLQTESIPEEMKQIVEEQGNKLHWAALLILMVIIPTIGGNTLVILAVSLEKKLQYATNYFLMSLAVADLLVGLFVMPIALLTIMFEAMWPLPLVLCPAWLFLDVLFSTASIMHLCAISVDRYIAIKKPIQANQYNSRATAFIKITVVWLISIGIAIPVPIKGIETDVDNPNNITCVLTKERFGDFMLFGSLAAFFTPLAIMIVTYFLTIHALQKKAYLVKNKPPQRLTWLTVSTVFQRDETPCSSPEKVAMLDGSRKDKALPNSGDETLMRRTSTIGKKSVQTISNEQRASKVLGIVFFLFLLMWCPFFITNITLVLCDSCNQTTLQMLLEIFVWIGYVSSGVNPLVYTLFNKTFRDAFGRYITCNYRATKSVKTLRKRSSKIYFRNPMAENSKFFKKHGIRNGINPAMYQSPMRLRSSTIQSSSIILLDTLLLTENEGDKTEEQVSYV
Protein cereblon/DNA damage-binding protein 1 (Homo sapiens), sequence (Q16531 2-1140 partner limits assumed): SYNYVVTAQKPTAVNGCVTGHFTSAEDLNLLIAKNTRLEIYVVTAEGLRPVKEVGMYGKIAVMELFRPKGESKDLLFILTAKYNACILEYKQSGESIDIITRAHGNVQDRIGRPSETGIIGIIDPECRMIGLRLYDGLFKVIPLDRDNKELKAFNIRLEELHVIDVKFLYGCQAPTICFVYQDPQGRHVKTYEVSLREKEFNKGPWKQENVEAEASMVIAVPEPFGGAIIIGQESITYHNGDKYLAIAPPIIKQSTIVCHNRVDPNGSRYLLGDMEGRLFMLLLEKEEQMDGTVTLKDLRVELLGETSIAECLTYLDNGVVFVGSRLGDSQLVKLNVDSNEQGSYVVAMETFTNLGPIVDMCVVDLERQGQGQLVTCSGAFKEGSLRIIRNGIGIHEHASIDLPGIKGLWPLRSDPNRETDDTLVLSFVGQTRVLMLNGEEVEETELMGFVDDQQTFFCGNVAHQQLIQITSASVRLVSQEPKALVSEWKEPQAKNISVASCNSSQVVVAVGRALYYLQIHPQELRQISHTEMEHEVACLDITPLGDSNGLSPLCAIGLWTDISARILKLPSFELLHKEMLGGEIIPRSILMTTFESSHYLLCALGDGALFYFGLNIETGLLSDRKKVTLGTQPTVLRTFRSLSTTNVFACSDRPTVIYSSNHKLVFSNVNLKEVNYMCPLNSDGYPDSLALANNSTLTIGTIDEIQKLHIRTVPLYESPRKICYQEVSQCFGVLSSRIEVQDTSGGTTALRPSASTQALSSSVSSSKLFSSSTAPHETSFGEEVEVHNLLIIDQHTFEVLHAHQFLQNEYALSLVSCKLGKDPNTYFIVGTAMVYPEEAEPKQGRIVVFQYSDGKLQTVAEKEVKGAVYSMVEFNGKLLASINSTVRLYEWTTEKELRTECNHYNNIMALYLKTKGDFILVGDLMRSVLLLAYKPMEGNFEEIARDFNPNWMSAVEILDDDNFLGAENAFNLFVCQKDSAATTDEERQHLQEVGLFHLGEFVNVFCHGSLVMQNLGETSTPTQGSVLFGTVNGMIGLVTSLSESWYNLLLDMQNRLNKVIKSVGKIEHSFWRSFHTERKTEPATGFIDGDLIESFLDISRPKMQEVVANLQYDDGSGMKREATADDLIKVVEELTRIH
Protein cereblon/DNA damage-binding protein 1 (Homo sapiens), sequence (Q96SW2 whole entry): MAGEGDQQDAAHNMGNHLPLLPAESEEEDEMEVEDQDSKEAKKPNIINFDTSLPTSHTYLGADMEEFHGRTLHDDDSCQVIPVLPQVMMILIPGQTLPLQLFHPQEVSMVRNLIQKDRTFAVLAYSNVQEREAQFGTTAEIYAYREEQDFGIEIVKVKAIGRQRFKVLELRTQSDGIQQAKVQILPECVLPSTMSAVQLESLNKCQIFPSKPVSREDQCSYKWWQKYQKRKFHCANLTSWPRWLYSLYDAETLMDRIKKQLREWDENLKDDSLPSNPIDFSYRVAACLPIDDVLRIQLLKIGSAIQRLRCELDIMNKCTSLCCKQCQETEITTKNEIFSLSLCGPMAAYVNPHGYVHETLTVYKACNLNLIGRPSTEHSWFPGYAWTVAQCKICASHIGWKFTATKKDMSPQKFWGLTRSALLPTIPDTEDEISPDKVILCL
5-hydroxytryptamine receptor 2A, sequence (P28223 whole entry): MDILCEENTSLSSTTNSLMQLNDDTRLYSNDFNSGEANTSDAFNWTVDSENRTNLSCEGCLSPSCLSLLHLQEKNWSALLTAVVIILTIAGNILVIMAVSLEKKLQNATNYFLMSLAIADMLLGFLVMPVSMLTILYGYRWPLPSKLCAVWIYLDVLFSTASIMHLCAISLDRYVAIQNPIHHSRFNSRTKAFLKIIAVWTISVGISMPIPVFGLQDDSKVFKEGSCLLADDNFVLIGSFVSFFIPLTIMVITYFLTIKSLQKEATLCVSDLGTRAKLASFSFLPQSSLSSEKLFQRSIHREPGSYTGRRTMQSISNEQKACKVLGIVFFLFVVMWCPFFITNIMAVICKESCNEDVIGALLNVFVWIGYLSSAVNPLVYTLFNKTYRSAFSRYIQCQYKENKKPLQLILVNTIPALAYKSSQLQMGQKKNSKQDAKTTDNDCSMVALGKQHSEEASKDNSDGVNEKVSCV

Take `CS(=O)(=O)N1CCCC(N2C(=O)c3cccc(N)c3C2=O)C1` (stereo unspecified): the Activity with RAW264.7 [1] is 99%; in the assay with RAW264.7 [2], 96%; in assay [5], “Dose-Dependent Effect”; in the assay on RAW264.7 [6], 95%; in the assay on RAW264.7 [8], 112%; in the assay with RAW264.7 [9], 98%. Moreover, the Activity with RAW264.7 [11] was 116%; in the assay with RAW264.7 [13], 111%; in the assay with RAW264.7 [15] it was 92%; in the assay with RAW264.7 [16], 103%. Besides, the Ki in assay [3], in assay [4] and in assay [7] was over 10 µM throughout. In addition, the viability at 10 µM in the assay on RAW264.7 [10] worked out at 103%. The viability at 1 µM with RAW264.7 [12] amounted to 103%. The viability at 30 µM in the assay with RAW264.7 [14] turned out to be 103%.
